Results as given in ChEMBL document CHEMBL5252660 (ACS Med Chem Lett, 2023).

Assays:
[1] = tested on: SNU-16; test: cells; conditions: Homo sapiens, SNU-16, 72 h
Description: Cytotoxicity against human SNU-16 cells assessed as inhibition of cell growth measured after 72 hrs by cell titer glo assay

[2] = tested on: SNU1; test: cells; conditions: Homo sapiens, SNU1, 72 h
Description: Cytotoxicity against human SNU1 cells assessed as inhibition of cell growth measured after 72 hrs by cell titer glo assay

[3] = molecular target: Fibroblast growth factor receptor 2 (Homo sapiens, UniProt P21802)
Description: Inhibition of human recombinant cytoplasmic domain FGFR2 (8 to 134 residues) incubated for 120 mins by mobility shift assay

[4] = molecular target: Epidermal growth factor receptor (Homo sapiens, UniProt P00533, EX19DEL/T790M); test: Inhibition of recombinant human EGFR del19/T790M using biotinEEPLYWSFPAKKK-NH2 as substrate incubated for 120 mins by TR-FRET assay
[5] = molecular target: Vascular endothelial growth factor receptor 2 (Homo sapiens, UniProt P35968)
Description: Inhibition of N-terminal GST tagged recombinant human VEGFR2 (aa805 to 1356 residues) expressed in baculovirus expression system using Poly- (Glu4:Tyr)-biotin as substrate incubated for 80 mins in presence of ATP by kinase glo method

[6] = Microsomal stability in human liver microsomes assessed as parent compound remaining measured after 30 mins in presence of NADPH generating system by LC-MS analysis; format: ADME, Microsome; conditions: read-out: Stability
[7] = Microsomal stability in mouse liver microsomes assessed as parent compound remaining measured after 30 mins in presence of NADPH generating system by LC-MS analysis; format: ADME, Microsome; conditions: read-out: Stability
[8] = Drug exposure in BALB/cA mouse assessed as AUC(0 to 6 hrs) of drug at 50 mg/kg, po measured after 6 hrs by LC-MS analysis; format: ADME, organism-based; parameters: dose 50 mg/kg, time 6 hrs, route po; conditions: in vivo
[9] = Lipophilicity, logD of the compound at pH 7.4; format: physicochemical; conditions: buffer
[10] = molecular target: Fibroblast growth factor receptor 1 (Homo sapiens) (UniProt P11362); test: Inhibition of partial length wild type human FGFR1 (P357 to V669 residues) expressed in bacterial expression system at 100 uM by Kinome scan method relative to control
[11] = molecular target: Fibroblast growth factor receptor 3 (Homo sapiens) (UniProt P22607); test: Inhibition of wild type human partial length FGFR3 (R442 to S771 residues) expressed in bacterial expression system at 100 uM by Kinome scan method relative to control
[12] = molecular target: T1, Mitogen-activated protein kinase 12 (Homo sapiens) (UniProt P53778); test: Inhibition of human full length wild type MAPK12 (M1 to L367 residues) expressed in mammalian expression system at 100 uM by Kinome scan method relative to control
T1 sequence (whole entry): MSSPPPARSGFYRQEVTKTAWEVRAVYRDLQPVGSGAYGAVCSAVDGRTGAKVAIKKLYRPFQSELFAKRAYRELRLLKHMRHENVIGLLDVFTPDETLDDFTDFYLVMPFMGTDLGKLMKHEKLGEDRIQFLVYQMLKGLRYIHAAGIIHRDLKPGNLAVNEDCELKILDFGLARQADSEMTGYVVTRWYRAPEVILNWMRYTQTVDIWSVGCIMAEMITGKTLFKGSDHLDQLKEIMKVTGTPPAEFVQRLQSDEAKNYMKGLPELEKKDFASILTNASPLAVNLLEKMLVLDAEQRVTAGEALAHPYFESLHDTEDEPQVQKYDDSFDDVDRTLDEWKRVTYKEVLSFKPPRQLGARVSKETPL

[13] = molecular target: Insulin receptor (Homo sapiens) (UniProt P06213); test: Inhibition of human wild type partial length INSR (P997 to E1318 resides) expressed in mammalian expression system at 100 uM by Kinome scan method relative to control
Chain of Insulin receptor (Homo sapiens) (P06213 28-758 limits assumed): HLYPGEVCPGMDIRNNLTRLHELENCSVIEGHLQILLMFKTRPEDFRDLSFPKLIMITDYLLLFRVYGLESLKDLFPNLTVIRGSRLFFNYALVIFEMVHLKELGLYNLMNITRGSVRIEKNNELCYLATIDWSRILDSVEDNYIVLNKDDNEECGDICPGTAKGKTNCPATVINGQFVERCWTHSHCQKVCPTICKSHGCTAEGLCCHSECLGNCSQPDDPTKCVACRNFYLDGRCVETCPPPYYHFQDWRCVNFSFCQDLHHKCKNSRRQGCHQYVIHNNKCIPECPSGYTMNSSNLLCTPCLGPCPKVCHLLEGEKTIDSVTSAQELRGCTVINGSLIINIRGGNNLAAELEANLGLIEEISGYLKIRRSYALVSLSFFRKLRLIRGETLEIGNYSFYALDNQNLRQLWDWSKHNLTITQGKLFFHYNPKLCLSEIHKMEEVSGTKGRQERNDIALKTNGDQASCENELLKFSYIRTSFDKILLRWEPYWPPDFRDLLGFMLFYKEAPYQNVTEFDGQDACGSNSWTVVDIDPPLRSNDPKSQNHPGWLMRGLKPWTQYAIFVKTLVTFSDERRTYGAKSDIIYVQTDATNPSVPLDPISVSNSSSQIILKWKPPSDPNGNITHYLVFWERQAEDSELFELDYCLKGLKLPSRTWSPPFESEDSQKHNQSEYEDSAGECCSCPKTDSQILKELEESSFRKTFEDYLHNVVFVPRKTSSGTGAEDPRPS
Chain of Insulin receptor (Homo sapiens) (P06213 763-1382 limits assumed): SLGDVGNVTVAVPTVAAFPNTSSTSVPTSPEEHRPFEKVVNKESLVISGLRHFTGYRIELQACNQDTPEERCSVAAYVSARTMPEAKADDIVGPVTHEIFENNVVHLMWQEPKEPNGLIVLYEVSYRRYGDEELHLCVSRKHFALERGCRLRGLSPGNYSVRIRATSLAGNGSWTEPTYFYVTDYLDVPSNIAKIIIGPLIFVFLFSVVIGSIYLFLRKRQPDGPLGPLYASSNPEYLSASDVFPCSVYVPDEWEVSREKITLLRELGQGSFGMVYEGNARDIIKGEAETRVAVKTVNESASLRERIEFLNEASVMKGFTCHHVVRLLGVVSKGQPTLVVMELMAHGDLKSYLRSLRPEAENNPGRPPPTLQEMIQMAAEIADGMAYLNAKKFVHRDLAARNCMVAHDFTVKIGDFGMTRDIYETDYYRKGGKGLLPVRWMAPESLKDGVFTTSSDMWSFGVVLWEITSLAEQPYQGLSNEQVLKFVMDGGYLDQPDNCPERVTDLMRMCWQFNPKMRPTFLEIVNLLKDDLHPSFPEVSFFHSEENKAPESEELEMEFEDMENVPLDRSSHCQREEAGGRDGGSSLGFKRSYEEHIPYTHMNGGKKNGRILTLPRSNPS

Chain of Fibroblast growth factor receptor 2 (P21802 whole entry): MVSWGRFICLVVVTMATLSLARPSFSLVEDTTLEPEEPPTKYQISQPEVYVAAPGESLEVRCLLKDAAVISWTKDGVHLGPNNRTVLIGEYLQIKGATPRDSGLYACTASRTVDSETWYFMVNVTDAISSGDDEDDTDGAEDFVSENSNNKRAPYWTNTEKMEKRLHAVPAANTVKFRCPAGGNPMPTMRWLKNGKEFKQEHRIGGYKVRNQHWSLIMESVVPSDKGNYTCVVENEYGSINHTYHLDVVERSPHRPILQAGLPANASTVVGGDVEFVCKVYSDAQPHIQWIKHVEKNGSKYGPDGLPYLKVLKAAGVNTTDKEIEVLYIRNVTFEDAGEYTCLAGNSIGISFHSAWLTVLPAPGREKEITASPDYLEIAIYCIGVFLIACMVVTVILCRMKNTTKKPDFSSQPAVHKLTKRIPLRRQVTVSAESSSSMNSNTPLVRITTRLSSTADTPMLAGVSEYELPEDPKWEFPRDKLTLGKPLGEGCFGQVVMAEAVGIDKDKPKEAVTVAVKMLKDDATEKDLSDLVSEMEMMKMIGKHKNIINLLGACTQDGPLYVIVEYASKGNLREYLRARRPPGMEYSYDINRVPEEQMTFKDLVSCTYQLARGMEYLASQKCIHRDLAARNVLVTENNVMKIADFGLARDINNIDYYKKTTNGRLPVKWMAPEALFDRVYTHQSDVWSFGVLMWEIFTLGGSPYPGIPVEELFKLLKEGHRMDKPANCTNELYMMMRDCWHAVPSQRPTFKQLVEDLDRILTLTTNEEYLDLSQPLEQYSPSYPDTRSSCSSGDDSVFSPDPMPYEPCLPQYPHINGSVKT
Chain of Epidermal growth factor receptor (P00533 whole entry, looked up, stated change not applied): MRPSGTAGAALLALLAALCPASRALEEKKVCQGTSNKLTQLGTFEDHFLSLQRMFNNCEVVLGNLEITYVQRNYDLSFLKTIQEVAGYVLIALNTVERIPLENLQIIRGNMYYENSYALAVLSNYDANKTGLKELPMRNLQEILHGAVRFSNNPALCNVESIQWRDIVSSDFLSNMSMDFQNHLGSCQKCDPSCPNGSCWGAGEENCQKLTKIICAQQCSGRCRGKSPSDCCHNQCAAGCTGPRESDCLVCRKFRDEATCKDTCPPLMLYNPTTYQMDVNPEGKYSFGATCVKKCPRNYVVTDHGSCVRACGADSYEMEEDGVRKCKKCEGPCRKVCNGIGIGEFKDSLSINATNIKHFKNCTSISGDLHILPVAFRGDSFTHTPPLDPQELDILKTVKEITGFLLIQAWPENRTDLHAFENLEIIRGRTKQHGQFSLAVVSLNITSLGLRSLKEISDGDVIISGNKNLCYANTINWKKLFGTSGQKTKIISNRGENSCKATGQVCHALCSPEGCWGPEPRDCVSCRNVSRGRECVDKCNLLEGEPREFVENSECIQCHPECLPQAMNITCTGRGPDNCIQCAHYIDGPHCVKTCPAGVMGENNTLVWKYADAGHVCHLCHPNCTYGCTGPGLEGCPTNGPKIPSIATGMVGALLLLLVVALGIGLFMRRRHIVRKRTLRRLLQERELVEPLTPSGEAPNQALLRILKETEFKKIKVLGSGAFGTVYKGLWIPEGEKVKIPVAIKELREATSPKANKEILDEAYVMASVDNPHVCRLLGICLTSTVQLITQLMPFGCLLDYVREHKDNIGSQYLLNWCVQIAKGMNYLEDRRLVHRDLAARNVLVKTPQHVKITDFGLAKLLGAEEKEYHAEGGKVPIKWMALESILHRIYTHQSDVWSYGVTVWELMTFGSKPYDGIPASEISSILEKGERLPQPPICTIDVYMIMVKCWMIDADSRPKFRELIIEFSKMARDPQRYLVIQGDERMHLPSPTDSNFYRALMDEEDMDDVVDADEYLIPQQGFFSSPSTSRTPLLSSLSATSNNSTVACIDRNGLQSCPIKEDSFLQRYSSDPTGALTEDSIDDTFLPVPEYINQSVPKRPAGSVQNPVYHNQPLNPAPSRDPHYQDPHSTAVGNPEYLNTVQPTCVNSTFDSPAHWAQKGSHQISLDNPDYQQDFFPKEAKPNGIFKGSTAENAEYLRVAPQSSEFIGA
Chain of Vascular endothelial growth factor receptor 2 (P35968 whole entry): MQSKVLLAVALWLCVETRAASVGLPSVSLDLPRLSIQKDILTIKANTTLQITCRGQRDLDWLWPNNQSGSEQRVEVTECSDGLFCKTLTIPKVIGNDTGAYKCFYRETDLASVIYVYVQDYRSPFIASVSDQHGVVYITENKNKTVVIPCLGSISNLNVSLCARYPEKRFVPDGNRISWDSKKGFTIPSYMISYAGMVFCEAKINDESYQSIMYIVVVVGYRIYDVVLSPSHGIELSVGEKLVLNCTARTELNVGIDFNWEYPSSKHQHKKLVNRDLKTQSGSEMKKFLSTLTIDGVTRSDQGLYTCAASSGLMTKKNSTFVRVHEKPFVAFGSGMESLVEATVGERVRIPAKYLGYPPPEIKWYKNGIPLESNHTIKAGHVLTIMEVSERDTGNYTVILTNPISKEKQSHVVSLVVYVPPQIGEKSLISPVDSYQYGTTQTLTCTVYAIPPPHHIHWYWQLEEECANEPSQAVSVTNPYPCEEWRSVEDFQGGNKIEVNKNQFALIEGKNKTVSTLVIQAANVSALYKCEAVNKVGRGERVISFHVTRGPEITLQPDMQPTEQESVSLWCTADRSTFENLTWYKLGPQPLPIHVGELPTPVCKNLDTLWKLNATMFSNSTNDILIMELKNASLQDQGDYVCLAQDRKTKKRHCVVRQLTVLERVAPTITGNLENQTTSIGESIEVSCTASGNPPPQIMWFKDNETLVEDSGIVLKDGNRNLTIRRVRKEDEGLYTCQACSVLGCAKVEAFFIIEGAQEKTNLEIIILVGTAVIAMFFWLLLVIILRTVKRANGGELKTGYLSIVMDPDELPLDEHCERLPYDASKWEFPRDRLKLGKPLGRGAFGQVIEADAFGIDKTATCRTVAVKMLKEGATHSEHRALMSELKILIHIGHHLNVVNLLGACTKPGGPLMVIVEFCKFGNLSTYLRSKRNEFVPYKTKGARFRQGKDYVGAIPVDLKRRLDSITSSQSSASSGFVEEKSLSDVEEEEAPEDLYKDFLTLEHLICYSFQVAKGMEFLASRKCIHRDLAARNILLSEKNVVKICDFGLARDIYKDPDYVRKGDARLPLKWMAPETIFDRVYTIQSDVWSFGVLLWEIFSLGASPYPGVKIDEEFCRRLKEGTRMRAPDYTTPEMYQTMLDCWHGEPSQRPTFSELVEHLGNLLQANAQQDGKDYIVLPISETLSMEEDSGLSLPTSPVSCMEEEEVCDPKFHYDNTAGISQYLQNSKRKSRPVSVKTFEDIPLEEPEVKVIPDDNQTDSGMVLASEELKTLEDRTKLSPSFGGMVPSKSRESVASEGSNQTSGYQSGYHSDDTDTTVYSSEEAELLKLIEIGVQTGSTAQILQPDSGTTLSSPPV

| Structure (SMILES) | IC50 [1] [nM] | IC50 [2] [nM] | IC50 [3] [nM] | IC50 [4] [nM] | further results |
| --- | --- | --- | --- | --- | --- |
| COc1cc(C#Cc2nn([C@H]3CCN(C(=O)/C=C/CN(C)C)C3)c3ncnc(N)c23)cc(OC)c1 | 43 | > 5000 | – | – | – |
| C=CC(=O)N1CC[C@H](n2nc(-c3cnc4ccccc4c3)c3c(N)ncnc32)C1 | – | – | 255 | 741 | – |
| C=CC(=O)N1CC[C@@H](n2nc(C#Cc3cc(OC)cc(OC)c3)c3c(N)ncnc32)C1 | 113 | > 5000 | – | – | IC50 [5]: 1490 nM |
| C=CC(=O)N1CC[C@H](n2nc(-c3cc(OC)cc(OC)c3)c3c(N)ncnc32)C1 | – | – | – | > 5000 | – |
| C=CC(=O)N1CC[C@H](n2nc(CCc3cc(OC)cc(OC)c3)c3c(N)ncnc32)C1 | – | – | 239 | > 5000 | – |
| C=CC(=O)N1CCC(n2nc(C#Cc3cc(OC)cc(OC)c3)c3c(N)ncnc32)CC1 | 33 | > 5000 | – | – | – |
| C=CC(=O)N1CC[C@H](n2nc(C(=O)Nc3cc(OC)cc(OC)c3)c3c(N)ncnc32)C1 | – | – | 670 | > 5000 | – |
| C=CC(=O)N1CC[C@@H](n2cc(-c3cnc4ccccc4c3)c3c(N)ncnc32)C1 | – | – | 313 | 0.4 | – |
| C=CC(=O)N1CC[C@@H](n2nc(-c3cnc4ccccc4c3)c3c(N)ncnc32)C1 | – | – | 2260 | 5.4 | – |
| COc1cc(C#Cc2nn(C3CN(C(=O)/C=C/CN(C)C)C3)c3ncnc(N)c23)cc(OC)c1 | 8.4 | > 5000 | – | – | remaining at 0.5 h [6]: 77%; remaining at 0.5 h [7]: 98%; AUC(0-t) at 6 h [8]: 1.27 µM·h; logD [9]: 2.3 |
| C=CC(=O)N1CCC(n2cc(-c3cnc4ccccc4c3)c3c(N)ncnc32)C1 (racemic) | – | – | 57 | 1.2 | – |
| C=CC(=O)N1CC[C@H](n2cc(-c3cnc4ccccc4c3)c3c(N)ncnc32)C1 | – | – | 17 | 111 | – |
| C=CC(=O)N1CC[C@H](n2nc(C#Cc3cc(OC)cc(OC)c3)c3c(N)ncnc32)C1 [FUTIBATINIB] | 3.7 | > 5000 | – | > 5000 | IC50 [5]: 2360 nM; remaining at 0.5 h [6]: 66%; remaining at 0.5 h [7]: 69%; AUC(0-t) at 6 h [8]: 23.9 µM·h; logD [9]: 3.4; inhibition [10]: 99.1%; inhibition [11]: 97.8%; inhibition [12]: 69%; inhibition [13]: 55% |
| C=CC(=O)NCCn1nc(C#Cc2cc(OC)cc(OC)c2)c2c(N)ncnc21 | 362 | > 5000 | – | – | – |
| C=CC(=O)N1CC(n2nc(C#Cc3cc(OC)cc(OC)c3)c3c(N)ncnc32)C1 | 7.4 | > 5000 | – | – | remaining at 0.5 h [6]: 83%; remaining at 0.5 h [7]: 92%; AUC(0-t) at 6 h [8]: 0.07 µM·h; logD [9]: 3 |
| CCC(=O)N1CC[C@H](n2nc(C#Cc3cc(OC)cc(OC)c3)c3c(N)ncnc32)C1 | 1420 | > 5000 | – | > 5000 | – |
| C=CC(=O)N1CC(Cn2nc(C#Cc3cc(OC)cc(OC)c3)c3c(N)ncnc32)C1 | 32 | > 5000 | – | – | – |
